Experimental findings from article PMC6351562, “Structure, function, and inhibition of drug reactivating human gut microbial β-glucuronidases” (Scientific Reports, 2019) are described below.

Holding throughout (type): biochemical
The target of test [1] is T1, Bacteroides dorei GUS (BdGUS) (Phocaeicola dorei, UniProt I9FNR0).
T1 sequence (I9FNR0 21-875): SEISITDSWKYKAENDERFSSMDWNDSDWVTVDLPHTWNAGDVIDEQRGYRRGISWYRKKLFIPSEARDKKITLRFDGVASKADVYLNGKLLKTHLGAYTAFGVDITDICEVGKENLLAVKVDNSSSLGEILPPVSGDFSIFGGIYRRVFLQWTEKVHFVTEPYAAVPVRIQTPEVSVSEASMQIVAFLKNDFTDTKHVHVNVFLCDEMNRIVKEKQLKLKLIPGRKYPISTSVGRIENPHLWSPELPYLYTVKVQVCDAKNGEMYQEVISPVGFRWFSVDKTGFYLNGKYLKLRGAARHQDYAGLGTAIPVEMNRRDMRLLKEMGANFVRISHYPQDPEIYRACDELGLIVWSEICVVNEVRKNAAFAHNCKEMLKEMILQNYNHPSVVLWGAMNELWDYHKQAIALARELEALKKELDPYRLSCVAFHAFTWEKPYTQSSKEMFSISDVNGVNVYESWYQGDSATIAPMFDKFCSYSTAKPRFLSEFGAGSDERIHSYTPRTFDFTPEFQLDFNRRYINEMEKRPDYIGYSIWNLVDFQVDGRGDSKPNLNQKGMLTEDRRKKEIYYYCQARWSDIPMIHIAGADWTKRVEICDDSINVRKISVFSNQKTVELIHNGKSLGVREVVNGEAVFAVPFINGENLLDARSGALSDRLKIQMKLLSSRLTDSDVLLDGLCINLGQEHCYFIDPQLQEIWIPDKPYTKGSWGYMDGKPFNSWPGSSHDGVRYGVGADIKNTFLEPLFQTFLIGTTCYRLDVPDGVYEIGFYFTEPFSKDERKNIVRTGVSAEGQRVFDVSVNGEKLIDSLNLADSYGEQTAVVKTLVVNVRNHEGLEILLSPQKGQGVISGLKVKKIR
Briefly: In vitro DCF-G processing assay (UPLC). Particulars: DCF-G as substrate, 400 µM; pH 6.0; 37 °C.

The target of test [2] is T2, Clostridium perfringens GUS (CpGUS) (Clostridium perfringens, UniProt Q8VNV4). Conditions: pH 6.5; 37 °C.
Test [3] has as its target T2, Clostridium perfringens GUS (CpGUS). In words: biochemical.
The target of test [4] is T3, Lactobacillus rhamnosus GUS (LrGUS) (Lacticaseibacillus rhamnosus, UniProt A0A2A5L2J1).
T3 sequence (A0A2A5L2J1 1-603): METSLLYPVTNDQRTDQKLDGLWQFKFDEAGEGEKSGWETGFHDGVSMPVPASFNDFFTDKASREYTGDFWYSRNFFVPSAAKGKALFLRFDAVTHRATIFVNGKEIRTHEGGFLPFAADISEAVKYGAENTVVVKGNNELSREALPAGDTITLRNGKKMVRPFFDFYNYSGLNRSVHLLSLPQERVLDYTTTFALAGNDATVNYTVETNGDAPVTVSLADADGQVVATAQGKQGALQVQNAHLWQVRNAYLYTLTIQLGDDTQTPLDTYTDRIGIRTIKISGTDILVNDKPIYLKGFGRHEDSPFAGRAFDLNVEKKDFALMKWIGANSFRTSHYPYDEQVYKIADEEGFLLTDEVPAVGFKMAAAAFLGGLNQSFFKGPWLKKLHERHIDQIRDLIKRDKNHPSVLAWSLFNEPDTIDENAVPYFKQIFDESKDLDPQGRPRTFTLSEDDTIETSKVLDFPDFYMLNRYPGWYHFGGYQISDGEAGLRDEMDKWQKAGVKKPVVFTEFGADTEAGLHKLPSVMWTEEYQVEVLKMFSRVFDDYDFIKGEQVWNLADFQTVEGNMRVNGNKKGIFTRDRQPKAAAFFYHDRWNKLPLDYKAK
Briefly: In vitro inhibition assay (pNPG hydrolysis).

In test [5] the target is T4, Faecalibacterium prausnitzii GUS (FpGUS) (Faecalibacterium duncaniae, UniProt C7H4D2).
T4 sequence (C7H4D2 1-608): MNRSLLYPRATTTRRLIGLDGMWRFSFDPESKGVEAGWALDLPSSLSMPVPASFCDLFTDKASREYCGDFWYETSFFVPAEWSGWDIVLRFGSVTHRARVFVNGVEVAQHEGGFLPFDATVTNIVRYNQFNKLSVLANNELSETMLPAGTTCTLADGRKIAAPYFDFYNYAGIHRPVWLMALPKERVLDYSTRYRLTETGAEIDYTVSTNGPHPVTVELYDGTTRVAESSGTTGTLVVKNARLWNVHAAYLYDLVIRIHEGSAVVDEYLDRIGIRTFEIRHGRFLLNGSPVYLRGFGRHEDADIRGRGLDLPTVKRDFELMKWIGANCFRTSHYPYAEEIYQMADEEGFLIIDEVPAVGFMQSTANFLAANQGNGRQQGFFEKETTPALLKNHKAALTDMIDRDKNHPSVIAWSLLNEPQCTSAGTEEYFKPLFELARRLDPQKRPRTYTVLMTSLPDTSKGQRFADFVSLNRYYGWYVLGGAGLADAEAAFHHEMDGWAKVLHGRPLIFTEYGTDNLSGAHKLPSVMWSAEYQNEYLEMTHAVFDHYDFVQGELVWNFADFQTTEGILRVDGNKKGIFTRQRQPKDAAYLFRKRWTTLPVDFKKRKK
In words: In vitro inhibition assay (pNPG hydrolysis). Particulars: for IC50: pNPG 900 µM.

Test [6] has as its target T1, Bacteroides dorei GUS (BdGUS). Briefly: In vitro inhibition assay (pNPG hydrolysis). Particulars: for IC50: pNPG 900 µM.
The mark [7] stands for this setting: Inhibitor 1 (IC50, nM) pH 6.5, pH 6.5.
[8] abbreviates: Inhibitor 1 (IC50, nM) pH 7.5, pH 7.5.
The mark [9] stands for this setting: pH 6.5, read-out: UNC10201652 (IC50, nM) pH 6.5.
Where [10] appears, read: 100 µM, pH 6.5, read-out: inhibition at 100 µM UNC10201652.
Setting [11] is: pH 7.5, 1 hour end point, read-out: UNC10201652 (IC50, nM) pH 7.5.

Read-outs that look alike come from different tables or passages of the source.

In the case of `O=C(Cc1ccccc1Nc1c(Cl)cccc1Cl)O[C@@H]1O[C@H](C(=O)O)[C@@H](O)[C@H](O)[C@H]1O` [DCF-G, Diclofenac acyl β-D-glucuronide], the “Apparent kcat” value was determined as 9.8 ± 0.6 s⁻¹ in test [1] and 61.5 ± 0.6 s⁻¹ in test [2].
The term IC50 denotes the concentration that gives 50% inhibition. `CCOc1ccc(NC(=S)N(CCO)Cc2cc3cc(C)cc(C)c3[nH]c2=O)cc1` [Inhibitor 1]: the IC50 was greater than 100000 nM in test [3] (Inhibitor 1 (IC50, nM) pH 6.5); greater than 100000 nM in test [3] (Inhibitor 1 (IC50, nM) pH 7.5); greater than 100000 nM in test [4]; greater than 100000 nM in test [4] (read-out: Inhibitor 1 (IC50, nM) pH 7.5, pH 7.5, pNPG 900 µM); greater than 100000 nM in test [5] (setting [7]); greater than 100000 nM in test [5] (setting [8]). For the same compound, the IC50 in test [6] (setting [7]) and in test [6] (setting [8]) was greater than 100000 nM each time.
As usually defined, the inhibition is the change of the read-out against control, counted positive when it falls. For the compound `C1CCc2c(c(N3CCOCC3)nc3sc4c(N5CCNCC5)nnnc4c23)C1` [UNC10201652], the “decrease in potency from pH 7.5 to pH 6.5” value in test [3] amounted to 6 fold. Also, the IC50 in test [3] (IC50) is 26 to 160 nM; in test [3] (setting [9]), 160 ± 10 nM; in test [3] (pH 7.5, read-out: UNC10201652 (IC50, nM) pH 7.5), 26 ± 3 nM; in test [4] (pH 7.5, pNPG 900 µM, read-out: UNC10201652 (IC50, nM) pH 7.5), greater than 100000 nM; in test [4] (read-out: UNC10201652 (IC50, nM) pH 6.5), greater than 100000 nM; in test [5] (setting [9]) it was greater than 100000 nM. Also, the IC50 is greater than 3000 nM in test [5] (setting [11]), greater than 100000 nM in test [6] (setting [9]) and greater than 25000 nM in test [6] (setting [11]). For the same compound, the inhibition at 100 µM in test [5] (setting [10]) and in test [6] (setting [10]) was less than 80% in each case.
